Assay results taken from patent publication US4668499A, “Process for manufacturing hydrogen peroxide” (E. I. Du Pont de Nemours and Company, priority 1986, dated 1987).
Like-named read-outs stand apart in the source and are kept apart here.

Legend:
pKa of the amines = type: physicochemical; conditions: in 50/50 methanol/water; acid titration using glass electrode
Excerpt: ^(1) pKa values in water from Patai, S., "The Chemistry of Amino
Groups,", Interscience Publishers, New York, New York (1968), Chapter 4.
^(2) pKa values in 50/50 methanol/water determined by acid
titration using glass electrode.

[1] = activity in anthrone reoxidation (disappearance of 2-butylanthrone in fortified working solution under oxygen; liquid chromatography); conditions: 0.1 weight % amine, 60° C.; for % Original Amount Remaining After 24 Hours: 2-Butylanthrone: 2 weight % 2-butylanthrone, control (no amine) 76
[2] = amine stability to oxidation under plant extraction-stage conditions (35 weight % aqueous hydrogen peroxide, 60° C., 24 hours; gas chromatography); conditions: 0.1 weight % amine in working solution, shaken with equal volume 35 weight % aqueous hydrogen peroxide
[3] = 35% aqueous hydrogen peroxide
[4] = cited from earlier work
[5] = pilot plant cyclic anthraquinone process with amine addition
Method: A pilot plant facility, sized to be approximately 1/1000 that of a commercial unit, was charged with 1.5M lbs. of working solution withdrawn from the commercial unit. The working solution comprised a mixture of butyl and amyl anthraquinones and tetrahydroanthraquinones dissolved in a Cyclosol®/diisobutylcarbinol solvent. Using plant Pd/Al2 O3 slurry catalyst in the hydrogenator, operation of the pilot plant was commenced with a working solution flow of about 1.5 g.p.m. and at about 50° C. The average titer of the reduced working solution leaving the hydrogenator was about 38. "Titer" is an industrial term used as a measure of the depth or degree of reduction of the working solution, that is, the amount of hydroquinone formed expressed as LB. MOLS/10,000 gallons of working solution. Thirty-eight titer represents driving conditions for a commercial facility which is usually operated at 32 titer or less. As operating titer is increased, experience has shown that hydrogen peroxide production is increased but at the expense of increased quinone degradation and quinone use.
Over an initial operating period of two months in the pilot plant without amine addition, the anthrone content of the working solution increased steadily from 0.2 wt. % to 0.7 wt. % and was accompanied by a corresponding decrease in the quinone content of the working solution. Then, 0.05 wt. % of N,N-di-n-butylaniline was added to the pilot plant working solution hold tank. Over the next 36 hours a rapid drop in the anthrone content to about 0.2 wt. % was observed.
Operation of the pilot plant was continued at the 38 titer level for a further four and a half months with a daily production of about 250 lbs. hydrogen peroxide. The N,N-di-n-butylaniline content of the working solution was maintained at about 0.03 wt. % by means of small daily additions. […] Other operating parameters such as yield and product quality were unaffected.

[6] = in water, from Patai, The Chemistry of Amino Groups (1968), Chapter 4

SMILES: CCN(CC)c1ccccc1C [Example 8, N,N--Diethyl-2-methylaniline]
- pKa (pKa of the amines): 5.3
- % Original Amount Remaining After 24 Hours: 2-Butylanthrone [1]: 15%
- % Original Amount Remaining After 24 Hours: Amine [2]: 43%

SMILES: c1ccc(CN(Cc2ccccc2)Cc2ccccc2)cc1 [Example 4, Tribenzylamine, reference compound]
- % Original Amount Remaining After 24 Hours: 2-Butylanthrone [1]: 64%
- % Original Amount Remaining After 24 Hours: Amine [2]: 83%

SMILES: CCN(CC)c1cccc(C)c1 [Example 11, N,N--Diethyl-3-methylaniline]
- pKa (pKa of the amines): 6.0
- % Original Amount Remaining After 24 Hours: 2-Butylanthrone [1]: 5%
- % Original Amount Remaining After 24 Hours: Amine [2]: 55%

SMILES: Cc1cccc(N)c1 [Example 2, m-Toluidine]
- % Original Amount Remaining After 24 Hours: Amine [3]: 7%
- pKa ([4]; water): 4.7

SMILES: c1ccc(Nc2ccccc2)cc1 [Example 3, Diphenylamine, reference compound]
- pKa [4, 6]: 0.9
- % Original Amount Remaining After 24 Hours: 2-Butylanthrone [1]: 82%
- % Original Amount Remaining After 24 Hours: Amine [2]: 96%

SMILES: CCCCN(CCCC)CCCC [Example 5, Tributylamine, reference compound]
- pKa [4, 6]: 10.9
- % Original Amount Remaining After 24 Hours: 2-Butylanthrone [1]: 0%
- Reaction was complete in (time) ([1]; 2-butylanthrone reoxidation): three
- % Original Amount Remaining After 24 Hours: Amine [2]: 2%

SMILES: CCCCCCN(CCCCCC)c1ccccc1 [Example 6, N,N--Di-n-hexyl-aniline]
- pKa (pKa of the amines): 5.0
- % Original Amount Remaining After 24 Hours: 2-Butylanthrone [1]: 36%
- % Original Amount Remaining After 24 Hours: Amine [2]: 86%

SMILES: CCCCN(CCCC)c1ccccc1 [Example 7, N,N-di-n-butylaniline]
- pKa (pKa of the amines): 5.2
- anthrone content of the working solution after amine addition ([5]; 0.05 wt. % amine added, over the next 36 hours, from 0.7 wt. %, about 50° C., titer about 38): about 0.2 wt. %
- hydrogenation activity ([5]; after addition of 0.05 wt. % amine): An improvement in hydrogenation activity was also noted
- loss of quinones ([5]; amine maintained at about 0.03 wt. %, four and a half months, 38 titer): no measurable loss of quinones
- pKa [4, 6]: 6.2
- % Original Amount Remaining After 24 Hours: 2-Butylanthrone [1]: 13%
- % Original Amount Remaining After 24 Hours: Amine [2]: 76%

SMILES: CCCCN(CCCC)c1ccc(C)cc1 [Example 10, N,N--Di-n-butyl-4-methylaniline]
- pKa (pKa of the amines): 5.8
- % Original Amount Remaining After 24 Hours: 2-Butylanthrone [1]: 10%
- % Original Amount Remaining After 24 Hours: Amine [2]: 71%

SMILES: CCCCN(CCCC)c1ccc(C)c(C)c1 [Example 12, N,N--Di-n-butyl-3,4-dimethylaniline]
- pKa (pKa of the amines): 6.2
- % Original Amount Remaining After 24 Hours: 2-Butylanthrone [1]: 8%
- % Original Amount Remaining After 24 Hours: Amine [2]: 61%

SMILES: CCCCCCCCc1ccc(N(CCCC)CCCC)cc1 [Example 9, N,N--Di-n-butyl-4-octylaniline]
- pKa (pKa of the amines): 5.6
- % Original Amount Remaining After 24 Hours: 2-Butylanthrone [1]: 11%
- % Original Amount Remaining After 24 Hours: Amine [2]: 68%
